According to patent US8952024B2, “Herbicidal pyrimidone derivatives” (E I du Pont de Nemours and Company, priority 2009, dated 2015):

Experiments:
Assay in all cases: Test B pre-/postemergence plant response
Type in all cases: in vivo
corn (Zea mays) = tested on: corn (Zea mays)
In short: (§1)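 Seeds were sown in loam soil/sand blend and treated preemergence with compound in non-phytotoxic solvent mixture containing surfactant; postemergence sprays, same formulation, went onto plants 2 to 18 cm (1- to 4-leaf stage) in peat-based planting medium. Greenhouse 13 to 15 days, then visual rating versus untreated controls, 0 (no effect) to 100 (complete control).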

soybean (Glycine max) = tested on: soybean (Glycine max)
In short: as §1

[1] = tested on: woolly cupgrass (Eriochloa villosa)
In short: as §1

[2] = tested on: downy bromegrass (Bromus tectorum)
In short: as §1

[3] = tested on: johnsongrass (Sorghum halepense)
In short: as §1

[4] = tested on: Surinam grass (Brachiaria decumbens)
In short: as §1

kochia (Kochia scoparia) = tested on: kochia (Kochia scoparia)
In short: as §1

[5] = tested on: Italian ryegrass (Lolium multiflorum)
In short: as §1

[6] = tested on: pigweed (Amaranthus retroflexus)
In short: as §1

[7] = tested on: blackgrass (Alopecurus myosuroides)
In short: as §1

[8] = tested on: ragweed (common ragweed, Ambrosia elatior)
In short: as §1

[9] = tested on: giant foxtail (Setaria faberii)
In short: as §1

[10] = tested on: velvetleaf (Abutilon theophrasti)
In short: as §1

[11] = 31 g ai/ha, postemergence, scale 0 to 100, 0 is no effect, 100 is complete control
[12] = 62 g ai/ha, postemergence, 0 is no effect, 100 is complete control, 13 to 15 days
[13] = Postemergence, 125 g ai/ha, visual rating after 13 to 15 days, scale 0 (no effect) to 100 (complete control)
[14] = Postemergence, 250 g ai/ha, scale 0 to 100 (0 no effect, 100 complete control)
[15] = 250 g ai/ha, Preemergence, 0 to 100 scale
[16] = Postemergence, 62 g ai/ha, scale 0 (no effect) to 100 (complete control), 13 to 15 days
[17] = Preemergence, 31 g ai/ha, scale 0 to 100 (0 no effect, 100 complete control)
[18] = Preemergence, 62 g ai/ha, scale 0 to 100 (0 no effect, 100 complete control)
[19] = Preemergence, 125 g ai/ha, scale 0 to 100, 0 no effect, 100 complete control

SMILES: CC(C)n1c(-c2ccccc2)ncc(C(=O)C2=C(O)CCCC2=O)c1=O [Compound 95]
- Plant response rating, Corn (corn (Zea mays); [11]): 0
- Corn plant response rating (0 to 100 scale) (corn (Zea mays); [12]): 0
- Plant response rating, Corn (corn (Zea mays); [13]): 25
- Plant response rating, Corn (corn (Zea mays); [14]): 35
- Plant response rating, Soybean (soybean (Glycine max); [11]): 95
- Soybean plant response rating (0 to 100 scale) (soybean (Glycine max); [12]): 98
- Plant response rating, Soybean (soybean (Glycine max); [14]): 98
- Plant response rating, Cupgrass, Woolly [1, 11]: 45
- Cupgrass, Woolly plant response rating (0 to 100 scale) [1, 12]: 55
- Plant response rating, Cupgrass, Woolly [1, 13]: 65
- Plant response rating, Cupgrass, Woolly [1, 14]: 65
- Plant response rating, Bromegrass, Downy [2, 11]: 0
- Bromegrass, Downy plant response rating (0 to 100 scale) [2, 12]: 0
- Plant response rating, Bromegrass, Downy [2, 13]: 0
- Plant response rating, Bromegrass, Downy [2, 14]: 0
- Plant response rating, Johnsongrass [3, 11]: 5
- Johnsongrass plant response rating (0 to 100 scale) [3, 12]: 10
- Plant response rating, Johnsongrass [3, 14]: 45
- Plant response rating, Surinam Grass [4, 11]: 45
- Surinam Grass plant response rating (0 to 100 scale) [4, 12]: 45
- Plant response rating, Surinam Grass [4, 14]: 70
- Plant response rating, Kochia (kochia (Kochia scoparia); [11]): 80
- Kochia plant response rating (0 to 100 scale) (kochia (Kochia scoparia); [12]): 100
- Plant response rating, Kochia (kochia (Kochia scoparia); [14]): 100
- Plant response rating, Ryegrass, Italian [5, 11]: 0
- Ryegrass, Italian plant response rating (0 to 100 scale) [5, 12]: 0
- Plant response rating, Ryegrass, Italian [5, 14]: 0
- Plant response rating, Pigweed [6, 11]: 85
- Pigweed plant response rating (0 to 100 scale) [6, 12]: 98
- Plant response rating, Pigweed [6, 14]: 100
- Plant response rating, Blackgrass [7, 11]: 0
- Blackgrass plant response rating (0 to 100 scale) [7, 12]: 0
- Plant response rating, Blackgrass [7, 13]: 0
- Plant response rating, Blackgrass [7, 14]: 5
- Plant response rating, Ragweed [8, 11]: 75
- Ragweed plant response rating (0 to 100 scale) [8, 12]: 80
- Plant response rating, Ragweed [8, 14]: 95
- Plant response rating, Foxtail, Giant [9, 11]: 45
- Foxtail, Giant plant response rating (0 to 100 scale) [9, 12]: 65
- Plant response rating, Foxtail, Giant [9, 14]: 85
- Plant response rating, Velvetleaf [10, 11]: 85
- Velvetleaf plant response rating (0 to 100 scale) [10, 12]: 95
- Plant response rating, Velvetleaf [10, 14]: 100

SMILES: O=C1CCCC(O)=C1C(=O)c1cnc(-c2ccsc2)n(-c2ccccc2)c1=O [Compound 56]
- Plant response rating, Corn (corn (Zea mays); [11]): 45
- Plant response rating, Corn (corn (Zea mays); [15]): 0
- Plant response rating, Corn (corn (Zea mays); [16]): 65
- Plant response rating, Corn (corn (Zea mays); [13]): 65
- Plant response rating, Corn (corn (Zea mays); [14]): 70
- Plant response rating, Corn (corn (Zea mays); [17]): 0
- Plant response rating, Corn (corn (Zea mays); [18]): 0
- Plant response rating, Corn (corn (Zea mays); [19]): 0
- Plant response rating, Soybean (soybean (Glycine max); [11]): 85
- Plant response rating, Soybean (soybean (Glycine max); [16]): 85
- Plant response rating, Soybean (soybean (Glycine max); [13]): 95
- Plant response rating, Soybean (soybean (Glycine max); [14]): 98
- Plant response rating, Soybean (soybean (Glycine max); [17]): 20
- Plant response rating, Soybean (soybean (Glycine max); [19]): 80
- Plant response rating, Cupgrass, Woolly [1, 11]: 15
- Plant response rating, Cupgrass, Woolly [1, 15]: 70
- Plant response rating, Cupgrass, Woolly [1, 16]: 45
- Plant response rating, Cupgrass, Woolly [1, 13]: 65
- Plant response rating, Cupgrass, Woolly [1, 14]: 85
- Plant response rating, Cupgrass, Woolly [1, 17]: 0
- Plant response rating, Cupgrass, Woolly [1, 18]: 20
- Plant response rating, Cupgrass, Woolly [1, 19]: 50
- Plant response rating, Bromegrass, Downy [2, 11]: 35
- Plant response rating, Bromegrass, Downy [2, 15]: 5
- Plant response rating, Bromegrass, Downy [2, 16]: 45
- Plant response rating, Bromegrass, Downy [2, 13]: 50
- Plant response rating, Bromegrass, Downy [2, 14]: 60
- Plant response rating, Bromegrass, Downy [2, 17]: 0
- Plant response rating, Bromegrass, Downy [2, 18]: 0
- Plant response rating, Bromegrass, Downy [2, 19]: 0
- Plant response rating, Johnsongrass [3, 11]: 55
- Plant response rating, Johnsongrass [3, 15]: 80
- Plant response rating, Johnsongrass [3, 16]: 80
- Plant response rating, Johnsongrass [3, 13]: 85
- Plant response rating, Johnsongrass [3, 14]: 100
- Plant response rating, Johnsongrass [3, 17]: 10
- Plant response rating, Johnsongrass [3, 18]: 45
- Plant response rating, Johnsongrass [3, 19]: 55
- Plant response rating, Surinam Grass [4, 11]: 75
- Plant response rating, Surinam Grass [4, 16]: 80
- Plant response rating, Surinam Grass [4, 13]: 85
- Plant response rating, Surinam Grass [4, 14]: 100
- Plant response rating, Surinam Grass [4, 17]: 55
- Plant response rating, Surinam Grass [4, 18]: 95
- Plant response rating, Surinam Grass [4, 19]: 98
- Plant response rating, Kochia (kochia (Kochia scoparia); [11]): 90
- Plant response rating, Kochia (kochia (Kochia scoparia); [16]): 95
- Plant response rating, Kochia (kochia (Kochia scoparia); [13]): 100
- Plant response rating, Kochia (kochia (Kochia scoparia); [14]): 100
- Plant response rating, Ryegrass, Italian [5, 11]: 0
- Plant response rating, Ryegrass, Italian [5, 16]: 0
- Plant response rating, Ryegrass, Italian [5, 13]: 50
- Plant response rating, Ryegrass, Italian [5, 14]: 50
- Plant response rating, Ryegrass, Italian [5, 17]: 0
- Plant response rating, Ryegrass, Italian [5, 18]: 0
- Plant response rating, Ryegrass, Italian [5, 19]: 0
- Plant response rating, Pigweed [6, 11]: 98
- Plant response rating, Pigweed [6, 16]: 98
- Plant response rating, Pigweed [6, 13]: 100
- Plant response rating, Pigweed [6, 14]: 100
- Plant response rating, Pigweed [6, 17]: 98
- Plant response rating, Pigweed [6, 18]: 100
- Plant response rating, Pigweed [6, 19]: 100
- Plant response rating, Blackgrass [7, 11]: 0
- Plant response rating, Blackgrass [7, 15]: 5
- Plant response rating, Blackgrass [7, 16]: 10
- Plant response rating, Blackgrass [7, 13]: 20
- Plant response rating, Blackgrass [7, 14]: 20
- Plant response rating, Blackgrass [7, 17]: 0
- Plant response rating, Blackgrass [7, 18]: 0
- Plant response rating, Blackgrass [7, 19]: 0
- Plant response rating, Ragweed [8, 11]: 55
- Plant response rating, Ragweed [8, 16]: 55
- Plant response rating, Ragweed [8, 13]: 75
- Plant response rating, Ragweed [8, 14]: 75
- Plant response rating, Ragweed [8, 17]: 20
- Plant response rating, Ragweed [8, 18]: 65
- Plant response rating, Ragweed [8, 19]: 70
- Plant response rating, Foxtail, Giant [9, 11]: 75
- Plant response rating, Foxtail, Giant [9, 15]: 80
- Plant response rating, Foxtail, Giant [9, 16]: 80
- Plant response rating, Foxtail, Giant [9, 13]: 85
- Plant response rating, Foxtail, Giant [9, 14]: 95
- Plant response rating, Foxtail, Giant [9, 17]: 0
- Plant response rating, Foxtail, Giant [9, 18]: 40
- Plant response rating, Foxtail, Giant [9, 19]: 75
- Plant response rating, Velvetleaf [10, 11]: 85
- Plant response rating, Velvetleaf [10, 16]: 90
- Plant response rating, Velvetleaf [10, 13]: 98
- Plant response rating, Velvetleaf [10, 14]: 98
- Plant response rating, Velvetleaf [10, 17]: 85
- Plant response rating, Velvetleaf [10, 18]: 90
- Plant response rating, Velvetleaf [10, 19]: 98
